Data on one compound can be found in patent US20230293640A1, “COMPOUNDS FOR THE TREATMENT OF ENDOTHELIITIS IN CONTEXT OF VIRALLY CAUSED DISEASES” (F4 PHARMA GMBH, priority 2020, published 2023).

Where a SMILES comes first, the peptide text is derived from it.

The conditions of data set [1]: human, in vivo; cited from earlier work.
Data set [2] has as its system COVID-19-associated severe ARDS. Conditions: data of the 3 patients of example 2.
Excerpt: Example 2: Critically ill patients suffering from a COVID-19 infection in a second university care centre.
To this date, we treated three patients in individualized therapeutic attempts with FX06 in the second university care center.
All three patients were diagnosed with SARS-CoV-2 pneumonia resulting in severe acute respiratory distress syndrome (ARDS) and required extracorporeal membrane oxygenation (ECMO) therapy upon or early during their treatment in our facility. All patients were referred to our hospital from basic care providers due to the severity of their conditions. All patients required ECMO therapy at the time of FX06 treatment.
FX06 400 mg was administered once per day after informed consent by the close relative.

For `CC[C@H](C)[C@H](NC(=O)[C@@H]1CCCN1C(=O)[C@@H]1CCCN1C(=O)[C@@H]1CCCN1C(=O)[C@H](C)NC(=O)[C@@H]1CCCN1C(=O)[C@H](CCCNC(=N)N)NC(=O)[C@H](CC(C)C)NC(=O)[C@H](CO)NC(=O)[C@@H]1CCCN1C(=O)[C@H](C)NC(=O)[C@H](CCC(=O)O)NC(=O)[C@H](CCC(=O)O)NC(=O)[C@H](CCCNC(=N)N)NC(=O)[C@H](CCCCN)NC(=O)[C@H](CCCCN)NC(=O)[C@H](CC(=O)O)NC(=O)[C@H](CC(C)C)NC(=O)[C@@H]1CCCN1C(=O)[C@H](CCCNC(=N)N)NC(=O)[C@H](Cc1c[nH]cn1)NC(=O)CN)C(=O)N[C@@H](CO)C(=O)NCC(=O)NCC(=O)NCC(=O)N[C@@H](Cc1ccc(O)cc1)C(=O)N[C@@H](CCCNC(=N)N)C(=O)O` [FX06] (H-GHRPLDKKREEAPSLRPAPPPISGGGYR-OH), the “tolerability / safety profile in clinical trials” value in data set [1] was “well tolerated with a benign safety profile”. For the same compound, in data set [2], the “safety in severe ARDS” value was “safe to use”.
